Experimental data taken from paper PMC3170910, “Screening of Supports for the Immobilization of β-Glucosidase” (Enzyme Research, 2011).

Test system: T1, β-glucosidase
T1 construct: gene beta-D-glucoside glucohydrolase; not purified to one protein, isoenzyme not defined
Assay: p-nitrophenol release at […] nm; nonlinear fit (Solver)
Assay type: biochemical, Aspergillus sp.
Conditions: free enzyme, partially purified extract; acetate buffer, optimal pH (4.5) and temperature (65 °C optimum)

`O=[N+]([O-])c1ccc(O[C@@H]2O[C@H](CO)[C@@H](O)[C@H](O)[C@H]2O)cc1` [4-Nitrophenyl-β-D-glucopyranoside] gave a Km of 1600 µM.
